Measured values: patent US8470867B2, “Sigma receptor inhibitors” (Laboratorios Del Dr. Esteve, S.A., priority 2004, dated 2013)

Key:
[1] = tested on: capsaicin-induced mechanical allodynia; experiment: Effect on capsaicin in development of mechanical allodynia (von Frey filaments); type: in vivo; conditions: mice
Procedure: This model uses the von-Frey Filaments and is a model to test the effects or symptoms of neuropathic pain, allodynia etc.
• The injection of 1 μg of capsaicin to experimental animals produces acute pain followed by hyperalgesia/allodynia • The mechanisms involved in capsaicin-induced acute pain and hyperalgesia are relatively well known (mainly activation of peripheral nociceptors and sensitization of spinal cord neurons, respectively)
After habituation mice were according to FIG. 1 first treated with the test-compound (or solvent in controls). Then 1 μg capsaicin (1% DMSO) is injected into their paw resulting in developing pain in the effected paw. The effected paw is then treated with a mechanical stimulus and the latency time before the paw is withdrawn is measured.

σ2-receptor = molecular target: T1, σ2-receptor (Mus musculus, UniProt Q8VD00); experiment: Sigma-2 receptor binding, [3H]-DTG, brains from σ1 knockout mice; set-up: % Binding σ2: dose or concentration left out as unconfirmed
T1 construct: brains from sigma receptor type I (σ1) knockout mice were homogenized; from tissue; host or cells: brain membranes of σ1 knockout mice
T1 sequence (Q8VD00 1-176): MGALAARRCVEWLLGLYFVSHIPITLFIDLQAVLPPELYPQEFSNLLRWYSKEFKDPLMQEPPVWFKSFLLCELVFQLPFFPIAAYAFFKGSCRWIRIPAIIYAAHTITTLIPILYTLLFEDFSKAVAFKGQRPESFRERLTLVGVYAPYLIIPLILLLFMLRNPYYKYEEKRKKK
Procedure: Binding studies for σ2-receptor were performed as described ([…] et al., 1991) with some modifications. In brief, brains from sigma receptor type I (σ1) knockout mice were homogenized in a volume of 10 mL/g tissue net weight of ice-cold 10 mM Tris-HCl, pH 7.4, containing 320 mM sucrose (Tris-sucrose buffer) with a Potter-Elvehjem homogenizer (10 strokes at 500 r.p.m.) The homogenates were then centrifuged at 1000 g for […] at 4° C., and the supernatants were saved. The pellets were resuspended by vortexing in 2 mL/g ice-cold Tris-sucrose buffer and centrifuged again at 1000 g for 10 min. The combined 1000 g supernatants were centrifuged at 31000 g for 15 min at 4° C. The pellets were resuspended by vortexing in 3 mL/g 10 mM Tris-HCl, pH 7.4, and the suspension was kept at 25° C. for 15 min. Following centrifugation at 31000 g for 15 min, the pellets were resuspended by gentle Potter Elvehjem homogenization to a volume of 1.53 mL/g in 10 mM Tris-HCl pH 7.4. The assay tubes contained 10 μL of [^3H]-DTG (final concentration of 3 nM), 400 μL of the tissue suspension (5.3 mL/g in 50 mM Tris-HCl, pH 8.0) to a final assay volume of 0.5 mL. […] The amount of bound radioactivity was determined by liquid scintillation spectrometry using a Wallac Winspectral 1414 liquid scintillation counter. Protein concentrations were determined by the method of Lowry et al. (1951).

σ1-receptor = molecular target: T2, σ1-receptor (Cavia porcellus, UniProt Q60492); experiment: Sigma-1 receptor binding, [3H](+)-pentazocine, brain membranes; set-up: species or system guinea pig; conditions: for inhibition at 0.1 µM: 10^−7 M
T2 construct: guinea pig brains were homogenized; from tissue; host or cells: guinea pig brain membranes
T2 sequence (Q60492 whole entry): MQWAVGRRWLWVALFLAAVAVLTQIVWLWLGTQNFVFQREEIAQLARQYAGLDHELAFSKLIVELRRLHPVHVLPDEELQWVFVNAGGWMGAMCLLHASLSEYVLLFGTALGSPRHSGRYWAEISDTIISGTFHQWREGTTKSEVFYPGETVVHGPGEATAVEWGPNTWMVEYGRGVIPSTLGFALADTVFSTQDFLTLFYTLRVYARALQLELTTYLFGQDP
Procedure: Brain membrane preparation and binding assays for the σ1-receptor were performed as described (DeHaven-Hudkins et al., 1992) with some modifications. In brief, guinea pig brains were homogenized in 10 vols. (w/v) of Tris-HCl 50 mM 0.32 M sucrose, pH 7.4, with a Kinematica Polytron PT 3000 at 15000 r.p.m. for 30 s. The homogenate was centrifuged at 1000 g for […] at 4° C. and the supernatants collected and centrifuged again at 48000 g for 15 min at 4° C. The pellet was resuspended in 10 volumes of Tris-HCl buffer (50 mM, pH 7.4), incubated at 37° C. for 30 min, and centrifuged at 48000 g for 20 min at 4° C. Following this, the pellet was resuspended in fresh Tris-HCl buffer (50 mM, pH 7.4) and stored on ice until use.
Each assay tube contained 10 μL of [^3H](+)-pentazocine (final concentration of 0.5 nM), 900 μL of the tissue suspension to a final assay volume of 1 mL and a final tissue concentration of approximately 30 mg tissue net weight/mL. […] All tubes were incubated at 37° C. for 150 min before termination of the reaction by rapid filtration over Schleicher & Schuell GF 3362 glass fibre filters [previously soaked in a solution of 0.5% polyethylenimine for at least 1 h]. Filters were then washed with four times with 4 mL of cold Tris-HCl buffer (50 mM, pH 7.4). Following addition of scintillation cocktail, the samples were allowed to equilibrate overnight. The amount of bound radioactivity was determined by liquid scintillation spectrometry using a Wallac Winspectral 1414 liquid scintillation counter. Protein concentrations were determined by the method of Lowry et al. (1951).

psychosis = conditions: cited from earlier work
sigma (σ-2) site = sigma (σ-2) site (Homo sapiens, UniProt Q5BJF2); conditions: cited from earlier work
Sequence of sigma (σ-2) site (Q5BJF2 whole entry): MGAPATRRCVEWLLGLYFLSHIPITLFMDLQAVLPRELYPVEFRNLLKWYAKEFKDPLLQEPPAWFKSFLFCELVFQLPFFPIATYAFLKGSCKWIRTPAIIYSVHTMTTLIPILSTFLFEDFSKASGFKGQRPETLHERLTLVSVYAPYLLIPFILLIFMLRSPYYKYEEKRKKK

sigma 1 (σ-1) site = sigma 1 (σ-1) site (Homo sapiens, UniProt Q99720); conditions: cited from earlier work
Sequence of sigma 1 (σ-1) site (Q99720 whole entry): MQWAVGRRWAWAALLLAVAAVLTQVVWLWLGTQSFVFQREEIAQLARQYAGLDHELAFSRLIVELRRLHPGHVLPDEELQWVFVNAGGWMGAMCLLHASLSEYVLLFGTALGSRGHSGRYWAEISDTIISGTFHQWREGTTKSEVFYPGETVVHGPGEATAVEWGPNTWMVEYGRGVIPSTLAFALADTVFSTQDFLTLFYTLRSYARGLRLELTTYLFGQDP

Compound: Cc1cc(OCCN2CCOCC2)nn1-c1ccc(Cl)c(Cl)c1 [Example 1, 4-{2-(1-(3,4-Dichlorophenyl)-5-methyl-1H pyrazol-3-yloxy)ethyl}morpholine]
- analgesia in capsaicin-induced neuropathic pain, dose dependency (FIG. 2) ([1]; 1 μg capsaicin into paw, von Frey filaments): dose dependency of the treatment
- efficacy depending on the force of the von-Frey filaments (FIG. 3) ([1]; 1 μg capsaicin, 0.5 g typically in the range of neuropathic pain/allodynia): effective specifically in neuropathic pain or mechanical allodynia
- melting point: 179 to 182 °C
- % Binding σ2 (σ2-receptor): 3.7%
- Ki (σ2-receptor): > 10000 nM

Compound: Cl.Clc1ccc(-n2nc(OCCN3CCCC3)cc2-c2ccccc2)cc1Cl [Example 17, 1-(3,4-Dichlorophenyl)-5-phenyl-3-[2-(pyrrolidin-1-yl)ethoxy]-1H-pyrazole hydrochloride]
- inhibition at 0.1 µM (σ1-receptor): 47.3%
- melting point: 137 to 147 °C

Compound: Cl.Clc1ccc(-n2nc(OCCN3CCc4ccccc4C3)cc2-c2ccccc2)cc1Cl [Example 21, 2-{2-[1-(3,4-Dichlorophenyl)-5-phenyl-1H-pyrazol-3-yloxy]ethyl}-1,2,3,4-tetrahydroisoquinoline hydrochloride]
- inhibition at 0.1 µM (σ1-receptor): 45.5%
- melting point: 185 to 189 °C

Compound: Cc1cc(OCCCCN2CCOCC2)nn1-c1ccc(Cl)c(Cl)c1.Cl [Example 22, 4-{4-[1-(3,4-Dichlorophenyl)-5-methyl-1H-pyrazol-3-yloxy]butyl}morpholine hydrochloride]
- Ki (σ1-receptor): 2.5 nM
- inhibition at 0.1 µM (σ1-receptor): 97%
- melting point: 150 to 154 °C

Compound: Cc1cc(OCCCCN2CCCCC2)nn1-c1ccc(Cl)c(Cl)c1.Cl [Example 24, 1-{4-[1-(3,4-Dichlorophenyl)-5-methyl-1H-pyrazol-3-yloxy]butyl}piperidine hydrochloride]
- Ki (σ1-receptor): 0.5 nM
- inhibition at 0.1 µM (σ1-receptor): 110%
- melting point: 156 to 161 °C

Compound: Cc1cc(OCCCCN2CCN(C)CC2)nn1-c1ccc(Cl)c(Cl)c1.Cl.Cl [Example 25, 1-{4-[1-(3,4-Dichlorophenyl)-5-methyl-1H-pyrazol-3-yloxy]butyl}-4-methylpiperazine dihydrochloride]
- Ki (σ1-receptor): 3.9 nM
- inhibition at 0.1 µM (σ1-receptor): 94.2%
- melting point: 181 to 185 °C

Compound: Cc1cc(OCCCCN2CCC(c3ccccc3)CC2)nn1-c1ccc(Cl)c(Cl)c1.Cl [Example 28, 1-{4-[1-(3,4-dichlorophenyl)-5-methyl-1H-pyrazol-3-yloxy]butyl}-4-phenylpiperidine hydrochloride]
- inhibition at 0.1 µM (σ1-receptor): 95.1%
- melting point: 166 to 170 °C

Compound: CC(C)c1cc(OCCN2CCOCC2)nn1-c1ccc(Cl)c(Cl)c1.Cl [Example 31, 4-{2-[1-(3,4-dichlorophenyl)-5-isopropyl-1H-pyrazol-3-yloxy]ethyl}morpholine hydrochloride]
- inhibition at 0.1 µM (σ1-receptor): 68.6%
- melting point: 195 to 197 °C

Compound: CC(C)c1cc(OCCN2CCCC2)nn1-c1ccc(Cl)c(Cl)c1.Cl [Example 33, 1-(3,4-Dichlorophenyl)-5-isopropyl-3-[2-(pyrrolidin-1-yl)ethoxy]-1H-pyrazole hydrochloride]
- inhibition at 0.1 µM (σ1-receptor): 87.1%
- melting point: 138 to 142 °C

Compound: CC(C)c1cc(OCCCN2CCCC2)nn1-c1ccc(Cl)c(Cl)c1.Cl [Example 34, 1-(3,4-Dichlorophenyl)-5-isopropyl-3-[3-(pyrrolidin-1-yl)propoxy]-1H-pyrazole hydrochloride]
- Ki (σ1-receptor): 12.4 nM
- inhibition at 0.1 µM (σ1-receptor): 104%
- melting point: 152 to 156 °C

Compound: CC(C)c1cc(OCCN2CCc3ccccc3C2)nn1-c1ccc(Cl)c(Cl)c1.Cl [Example 36, 2-{2-[1-(3,4-dichlorophenyl)-5-isopropyl-1H-pyrazol-3-yloxy]ethyl}-1,2,3,4-tetrahydroisoquinoline hydrochloride]
- inhibition at 0.1 µM (σ1-receptor): 52.7%
- melting point: 186 to 191 °C

Compound: Cc1cc(OCCN2CCCCC2)nn1-c1ccc2ccccc2c1.Cl [Example 63, 1-{2-[5-Methyl-1-(naphthalen-2-yl)-1H-pyrazol-3-yloxy]ethyl}piperidine hydrochloride]
- inhibition at 0.1 µM (σ1-receptor): 105%
- melting point: 198 to 202 °C

Compound: Cc1cc(OCCN2CCCC2)nn1-c1ccc2ccccc2c1.Cl [Example 64, 5-Methyl-1-(naphthalen-2-yl)-3-[2-(pyrrolidin-1-yl)ethoxy]-1H-pyrazole hydrochloride]
- inhibition at 0.1 µM (σ1-receptor): 105%
- melting point: 170 to 171 °C

Compound: C[C@@H]1CN(CCCn2c3ccccc3c3ccccc32)C[C@H](C)N1 [rimcazole]
- clinical effects in the treatment of psychosis (psychosis): clinically shows effects in the treatment of psychosis

Compound: SKF 10047
- affinity for the sigma (σ-2) site (sigma (σ-2) site): micromolar affinity
- affinity for the sigma 1 (σ-1) site (sigma 1 (σ-1) site): nanomolar affinity
